“Also recorded” adds a separate entry of the source.
What was measured:
[1] = test system: β-cell mass (pancreatic signal); assay: Streptozotocin-induced diabetic mouse model, coelenterazine imaging of pancreas; assay type: in vivo, mice
Protocol: FIGS. 4A-4D illustrate the results from a streptozotocin-induced diabetic mouse model. Mice were treated with 200 mg/kg of streptozotocin (STZ) or PBS on day 0.
Top Panel: 3-days post-treatment, mice were administered 2 g/kg glucose and maintained on 10% sucrose water. Four h later, mice were intravenously injected with 1.4 mg/kg of coelenterazine and imaged. Bottom panel: Bioluminescence imaging of the excised pancreases collected from the mice depicted in top panel.
To conclusively determine the β-cell specificity of the signal, coelenterazine was used to image the pancreas of mice that received the β-cell toxic agent streptozotocin (STZ) versus a Phosphate-Buffered Saline (PBS) control in which the β-cells were functional.

[2] = test system: β-cell mass (pancreatic signal); assay: In vivo bioluminescence imaging of beta cell mass after intravenous coelenterazine; parameters: species or system mice
Protocol: FIG. 3A is a digital image, for the in vivo characterization of a coelenterazine (CTZ) pancreatic signal, showing the bioluminescence imaging of mice that were fasted for 6 h or received 2 g/kg intraperitoneal glucose and maintained on 10% sucrose water for 4 h. Mice then received 40 μg CTZ intravenously and were imaged immediately. FIG. 3C is a digital image, for the in vivo characterization of a coelenterazine (CTZ) pancreatic signal, showing the bioluminescence imaging of mice treated with glucose followed by administration of 0.56, 1.4, or 3.5 mg/kg CTZ intravenously. FIG. 3D is a graph illustrating the quantification of the signal detected in FIG. 3C at 1 min intervals following CTZ injection. […] A standardized anesthetic protocol with a defined anesthetic dose and induction period (if using inhalant anesthetics) is also required. Coelenterazine is prepared at a concentration of 10 mg/mL in 100% ethanol. The coelenterazine may be further diluted in a pharmaceutically acceptable carrier selected as suitable for injection into an animal subject for imaging. […] It is important to protect the imaging solution from light and that is prepared immediately prior to use. Following anesthetic induction, the imaging solution is intravenously administered at a dose of about 1-10 mg/kg and imaging is begun immediately in using an in vivo bioluminescence imaging system.

[3] = test system: rat insulinoma cell lines (RIN5F β-cell line); assay: In vitro bioluminescence imaging of cell lines with coelenterazine (cell plate assay); assay type: cell-based
Protocol: FIG. 1A is a digital image illustrating a cell plate assay. 10^5 cells of each cell line were washed two times in serum-free RPMI and plated in a 96-well black plate. Coelenterazine was added to a final concentration of 10 μM and the plate imaged. RIN5F is a β-cell line and the remainder are control cell lines.
FIG. 1B is a graph illustrating the quantification of the bioluminescence signals of FIG. 1A. Error bars represent the standard error.
In vitro experiments for the imaging cell lines may be completed on the day of cell collection or following incubation. If imaging is performed following prolonged incubation combined with comparisons between dissimilar cell lines, it is important to consider the likelihood of there being a different division rate for each cell line.
For same-day imaging, the cells are collected by a method dictated by the particular cell line. Cells are washed twice in imaging buffer by repeated resuspension and centrifugation (a variety of buffers have proven effective, including: PBS, DPBS and Krebs). […] The desired concentration of cells is added to an imaging plate.
Coelenterazine is resuspended to a concentration of about 1-10 mg/mL in 100% ethanol and then diluted in imaging buffer to achieve the desired imaging concentration. […]
The coelenterazine is added to wells to be imaged and the signal detected using a bioluminescence detection system such as an IVIS. […]

pancreas = assay: Ex vivo bioluminescence imaging of excised tissues with coelenterazine; parameters: species or system mice; conditions: ex vivo imaging of excised mouse tissues; significance P<0.05
Protocol: FIG. 2A is a digital image illustrating bioluminescence images of excised tissues from 3 mice in 1 mL PBS with 20 μg coelenterazine and imaged immediately.
Error bars represent the standard error and significance is defined as P<0.05.

| Compound | blood glucose values, STZ versus PBS ([1]; 200 mg/kg STZ on day 0, measured on day 3) | time of maximum pancreatic signal intensity post-injection ([2]; intravenous, about 1-10 mg/kg) | signal of insulin-secreting β-cells compared to cells quiescent due to fasting ([2]; mice, glucose-treated vs fasted) | dose dependence of detectable signal intensity ([2]; mice, intravenous) | location of bioluminescence signal upon intravenous injection ([2]; mice, intravenous) | coelenterazine-dependent bioluminescence signal of rat insulinoma cell lines relative to other cell lines ([3]; in the absence of any additional reagents) | time to stable maximum of signal following coelenterazine addition ([3]; in vitro, cells in imaging buffer) | pancreatic signal in STZ-treated mice versus PBS control ([1]; STZ 200 mg/kg day 0, imaging 3 days post-treatment, in vivo and ex vivo pancreas) | correlation between pancreatic signal and blood glucose ([1]; STZ and PBS mice) | bioluminescence signal of pancreas compared to other tissues (pancreas) |
| --- | --- | --- | --- | --- | --- | --- | --- | --- | --- | --- |
| CN(N=O)C(=O)N[C@H]1C(O)O[C@H](CO)[C@@H](O)[C@@H]1O (mixture of isomers) [streptozotocin] | difference (P=0.0265) |  |  |  |  |  |  |  |  |  |
| O=c1c(Cc2ccc(O)cc2)nc2c(Cc3ccccc3)[nH]c(-c3ccc(O)cc3)cn1-2 [coelenterazine, 6-(4-hydroxyphenyl)-2-[(4-hydroxyphenyl)methyl]-8-(phenylmethyl)-7H-imidazo[3,2-a]pyrazin-3-one] |  | 2 to 5 min | insulin-secreting β-cells produced a greater signal | dose-dependent | pancreatic-specific bioluminescent signal; also recorded: a mid-upper abdominal bioluminescence signal was detected | greater coelenterazine-dependent bioluminescence signal relative to other cell lines | 15 to 45 min | significant difference (P=0.0000); also recorded: reduced in type I diabetic mice; also recorded: significant reduction in pancreatic signal in STZ-treated mice | correlation was significant (P=0.0317); also recorded: significant and inverse correlation | Significantly greater signals were detected from the pancreas compared to all other tissues; also recorded: significantly elevated pancreatic signal compared to other examined non-insulin-producing tissues |
